Test system: NOMO1
Assay: cell viability relative to DMSO control; higher = less cytotoxic
Details: 48 h
Procedure, shortened: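 In 1536-well plates, 5 μl of leukemia cells were seeded per well: 500 cells/well for NOMO1 or SEM and 1000 cells/well for P12-Ichikawa. Each line had first been adapted for at least four passages in each medium. Library compounds in DMSO were pin-dosed at 11 threefold concentrations between 47 μM and 0.79 nM, and CellTiter-Glo One luminescence was read after 48 h at 37°C. Viability is a per-plate percentage relative to DMSO wells, with cell-free wells as background.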

[1] = HPLM + 10% dialyzed FBS, 0.000781 µM
[2] = HPLM + 10% dialyzed FBS, 0.00234 µM
[3] = HPLM + 10% dialyzed FBS, 0.00702 µM
[4] = HPLM + 10% dialyzed FBS, 0.0211 µM
[5] = HPLM + 10% dialyzed FBS, 0.0632 µM
[6] = HPLM + 10% dialyzed FBS, 0.19 µM
[7] = HPLM + 10% dialyzed FBS, 0.569 µM
[8] = HPLM + 10% dialyzed FBS, 1.71 µM
[9] = HPLM + 10% dialyzed FBS, 5.12 µM
[10] = HPLM + 10% dialyzed FBS, 15.4 µM
[11] = HPLM + 10% dialyzed FBS, 46.1 µM
[12] = RPMI 5 mM glucose + 10% FBS, 0.000781 µM
[13] = RPMI 5 mM glucose + 10% FBS, 0.00234 µM
[14] = RPMI 5 mM glucose + 10% FBS, 0.00702 µM
[15] = RPMI 5 mM glucose + 10% FBS, 0.0211 µM
[16] = RPMI 5 mM glucose + 10% FBS, 0.0632 µM
[17] = RPMI 5 mM glucose + 10% FBS, 0.19 µM
[18] = RPMI 5 mM glucose + 10% FBS, 0.569 µM
[19] = RPMI 5 mM glucose + 10% FBS, 1.71 µM
[20] = RPMI 5 mM glucose + 10% FBS, 5.12 µM
[21] = RPMI 5 mM glucose + 10% FBS, 15.4 µM
[22] = RPMI 5 mM glucose + 10% FBS, 46.1 µM
[23] = RPMI 5 mM glucose + 10% dialyzed FBS, 0.000781 µM
[24] = RPMI 5 mM glucose + 10% dialyzed FBS, 0.00234 µM
[25] = RPMI 5 mM glucose + 10% dialyzed FBS, 0.00702 µM
[26] = RPMI 5 mM glucose + 10% dialyzed FBS, 0.0211 µM
[27] = RPMI 5 mM glucose + 10% dialyzed FBS, 0.0632 µM
[28] = RPMI 5 mM glucose + 10% dialyzed FBS, 0.19 µM
[29] = RPMI 5 mM glucose + 10% dialyzed FBS, 0.569 µM
[30] = RPMI 5 mM glucose + 10% dialyzed FBS, 1.71 µM
[31] = RPMI 5 mM glucose + 10% dialyzed FBS, 5.12 µM
[32] = RPMI 5 mM glucose + 10% dialyzed FBS, 15.4 µM
[33] = RPMI 5 mM glucose + 10% dialyzed FBS, 46.1 µM

SMILES	cell viability [1] [%]	cell viability [2] [%]	cell viability [3] [%]	cell viability [4] [%]	cell viability [5] [%]	cell viability [6] [%]	cell viability [7] [%]	cell viability [8] [%]	cell viability [9] [%]	cell viability [10] [%]	cell viability [11] [%]	cell viability [12] [%]	cell viability [13] [%]	cell viability [14] [%]	cell viability [15] [%]	cell viability [16] [%]	cell viability [17] [%]	cell viability [18] [%]	cell viability [19] [%]	cell viability [20] [%]	cell viability [21] [%]	cell viability [22] [%]	cell viability [23] [%]	cell viability [24] [%]	cell viability [25] [%]	cell viability [26] [%]	cell viability [27] [%]	cell viability [28] [%]	cell viability [29] [%]	cell viability [30] [%]	cell viability [31] [%]	cell viability [32] [%]	cell viability [33] [%]
CC(C)[N+]1(C)C2CCC1CC(OC(=O)C(CO)c1ccccc1)C2.O.[Br-] (centres undefined)	129	118	120	117	123	119	148	134	101	58.8	21.9	103	105	95.1	118	108	123	101	116	109	92.3	48.6	115	115	119	110	132	114	127	121	105	93.2	60.7
NC[C@H]1O[C@H](O[C@H]2[C@H](O)[C@@H](O[C@H]3O[C@H](CO)[C@@H](O)[C@H](N)[C@H]3O)[C@H](N)C[C@@H]2N)[C@H](N)C[C@@H]1O	103	99.1	122	92.5	110	106	112	102	102	91.9	106	109	103	101	110	104	103	105	94.6	104	101	107	95.3	101	95.2	96	96.6	99.7	94.3	89.7	81.7	97.2	93.4
CN(C)CCOc1ccc(/C(=C(/CCCl)c2ccccc2)c2ccccc2)cc1	105	116	98	94.7	104	126	100	115	95.5	68.5	42.2	106	104	111	109	103	94.2	115	105	99.1	57.3	39.6	93.4	110	113	116	108	125	108	120	107	76.9	50.6
Nc1ccc([S+](=O)([O-])Nc2ncccn2)cc1	115	121	130	126	136	127	129	138	142	129	120																						
Cc1cnc(Nc2ccc(CN3CCOCC3)cc2)nc1Nc1cccc([S+](=O)([O-])NC(C)(C)C)c1	87.4	98.1	99.1	86.6	81.3	86.9	93.7	75.6	48.1	15.5	10.3	67.8	80	79.7	71.5	75.1	74.2	78.9	68	30.8	8.44	7.72	75.4	85.6	89.4	79.2	84.4	80.8	57.8	69.8	38.3	11.6	9.38
C1COC(NC(C2CC2)C2CC2)=N1	73.1	94	93	90.6	92.3	83.5	97.3	95.5	94.8	96.3	64.8	75.3	92.5	79.2	87.6	89.7	90.8	89.5	80.1	90.7	91.1	84.5	79.2	86.1	83.9	85	86.4	94.1	97.6	81.4	82.7	89.2	73
Cc1cnc(Nc2ccc(N3CCN(C)CC3)cc2)nc1Nc1cccc([S+](=O)([O-])NC(C)(C)C)c1	122	117	115	104	122	120	95.7	80.2	65.8	45.5	5.81	100	108	99.1	98.6	101	102	102	87.6	77.8	44.6	15.2	112	113	107	111	110	94.2	101	95.8	74.6	56.8	21.5
CC(S)C(=O)NCC(=O)O (centres undefined)	116	109	110	116	116	123	108	114	111	97.9	89.4	120	112	109	107	107	111	107	110	114	116	107	105	113	113	107	107	105	107	112	105	96.5	112
C1CN\2C[C@@H](\N=C2S1)C3=CC=CC=C3	101	98.4	103	96.9	104	114	102	94.8	91.3	97.7	60.3	87.9	88.6	90.1	90.2	104	88.5	89.5	90.8	95.8	91	103	87.6	88.8	85.3	90.5	93.3	88.5	86.8	99.9	84	93	91.7
CCOC(=O)O[C@]1(C(=O)OCCl)CC[C@H]2[C@@H]3CCC4=CC(=O)C=C[C@]4(C)[C@H]3[C@@H](O)C[C@@]21C	101	95.9	103	105	103	108	110	99.3	95.3	84.3	82	98.4	88.2	96.2	84.2	82.2	94.6	85.7	87.5	87.1	89.3	95	88.1	95.1	93.2	87.4	91	100	88.6	98.2	75.8	80.2	93.4
N[C@@H](Cc1ccc(O)c(O)c1)C(=O)O	121	133	117	118	144	131	122	136	131	116	55.3																						
COc1cc2ncn(-c3cc(OCc4ccccc4C(F)(F)F)c(C(N)=O)s3)c2cc1OC	124	117	126	117	120	115	89.2	46.1	42.2	41.2	24.9	99.2	111	116	111	120	118	110	94.9	26.3	24.6	17.6	108	122	112	113	112	123	117	85.2	32.4	30.1	24.9
CCOC(=O)[C@@H](N)CCC(=O)N[C@@H](CSCc1ccccc1)C(=O)N[C@@H](C(=O)OCC)c1ccccc1																							128	116	123	130	133	136	121	133	137	139	98.9
CN1CCC(CC1)=C2C3=C(C=CC=C3)\C=C/C4=C2C=CC=C4	98.6	118	113	130	133	141	147	133	121	124	93.4																						
CC(C)(O)C(=O)Nc1ccc([N+](=O)[O-])c(C(F)(F)F)c1	94.7	116	131	124	122	135	126	65.8	38	30.6	30.5	118	123	124	122	120	132	125	51.1	29	24.1	25.7											
C[C@H](Cc1ccc(O)c(O)c1)[C@@H](C)Cc1ccc(O)c(O)c1	130	119	118	117	126	133	134	132	42	99.6	18.4	141	114	112	122	117	109	119	114	111	104	57.5	119	121	124	107	104	114	113	111	57	94.1	27.9
